Source: ChEMBL document CHEMBL5321242, “Design and synthesis of 4-acetoxypentanamide derivatives of spliceostatin A and their biological evaluation towards prostate cancer treatment” (Bioorg Med Chem Lett, 2023)
In brackets after ≈: the same amount, converted by molar mass.

Legend:
[1] = Metabolic stability in mouse liver microsome assessed as parent compound remaining measured at 10 mins; type: ADME; details: liver microsomes, read-out: Stability
[2] = Metabolic stability in mouse liver microsome assessed as parent compound remaining measured at 60 mins; type: ADME; details: liver microsomes, read-out: Stability
[3] = Solubility of the compound in PBS buffer; type: physicochemical
[4] = system: PNT2; assay: Cytotoxicity against human PNT2 cells assessed as reduction in cell viability upto 200 nM by MTS assay; type: toxicity, cell-based; details: pnt2, 0.2 µM
[5] = Apparent permeability of the compound by PAMPA assay; type: ADME
[6] = Metabolic stability in human liver microsome assessed as parent compound remaining measured at 60 mins; type: ADME; details: liver microsomes, read-out: Stability
[7] = Metabolic stability in human liver microsome assessed as parent compound remaining measured at 10 mins; type: ADME; details: liver microsomes, read-out: Stability
[8] = Partition coefficient, logD of the compound; type: physicochemical; details: octanol/water
[9] = Inhibition of AR-V7 expression in human 22Rv1 cells; type: functional, cell-based, CWR22R

SMILES | remaining at 10 min [1] | remaining at 1 h [2] | solubility [3] | Activity [4] | Papp [5] | remaining at 1 h [6] | remaining at 10 min [7] | logD [8] | IC50 [9]
CC(=O)O[C@@H](C)CCC(=O)N[C@@H]1C[C@H](C)[C@H](C/C=C(C)/C=C/[C@H]2OCC[C@@]3(CO3)[C@@H]2O)O[C@@H]1C | 5% | 0% | ≥ 95 µM | Non-Toxic | 8.5 ×10⁻⁶ cm/s | 0% | 6% | 3.1 | 
CC(=O)O[C@@H](C)/C=C/C(=O)N[C@@H]1C[C@H](C)[C@H](C/C=C(C)/C=C/[C@H]2OCC[C@@]3(CO3)[C@@H]2O)O[C@@H]1C | 27% | 0% | 94.7 µM (≈ 45.2 µg/mL) |  | 11.3 ×10⁻⁶ cm/s | 0% | 0% | 3.2 | 
CC(=O)O[C@@H](C)/C=C\C(=O)N[C@@H]1C[C@H](C)[C@H](C/C=C(C)/C=C/[C@H]2OCC[C@@]3(CO3)[C@@H]2O)O[C@@H]1C | 0.3% | 0.1% | 95 µM (≈ 45.4 µg/mL) |  |  | 0% | 1.7% | 3.4 | 
CC(=O)O[C@@H](C)/C=C(/C)C(=O)N[C@@H]1C[C@H](C)[C@H](C/C=C(C)/C=C/[C@H]2OCC[C@@]3(CO3)[C@@H]2O)O[C@@H]1C | 0% | 0% | ≥ 95 µM | Non-Toxic | 18.5 ×10⁻⁶ cm/s | 0% | 1% | 3.6 | 
CC(C)NCC(O)COc1cccc2ccccc12 (configuration not stated) [PROPRANOLOL] |  |  |  |  | 3.5 ×10⁻⁶ cm/s |  |  |  | 
CO[C@]1(C)C[C@@]2(CO2)[C@H](O)[C@@H](/C=C/C(C)=C/C[C@@H]2O[C@H](C)[C@H](NC(=O)/C=C\[C@H](C)OC(C)=O)C[C@@H]2C)O1 | 2.5% | 0% | ≥ 95 µM |  |  | 0.5% | 32% | 3.8 | 0.6 nM
